In one assay the target is T1, Tel-TrkA (Homo sapiens, UniProt P04629).
T1 construct: dimerization domain of Tel (ETV6) transcription factor (fusion partner, human ETV6 P41212); expressed in transfected cells; host or cells: luciferase expressing Ba/F3 murine hematopoietic progenitor cells; the other entry of the earlier key: ETV6 (P41212, Transcription factor ETV6)
The experiment in a line: Inhibition of proliferation of Ba/F3 cells expressing Tel-TrkA (BaF3/Tel-TrkA, luciferase/Bright Glo readout). The class given is cell-based. The settings on record: read-out: Ba/F3 Tel-TrkA IC 50. The method, boiled down:
(§1)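 Luciferase-expressing murine Ba/F3 cells transformed with human Tel-TrkA or Tel-TrkB, plated at 2000 cells/well in IL3-free RPMI/10% FBS. Exposed to 12 concentrations of 3-fold serially diluted compound for 48 hours at 37° C, 5% CO2. Bright Glo luminescence read-out, with IC50 from linear regression of percent inhibition.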

The target in the next assay is T2, Tel-TrkB (Homo sapiens, UniProt Q16620).
T2 construct: dimerization domain of Tel (ETV6) transcription factor (fusion partner, human ETV6 P41212); expressed in transfected cells; host or cells: luciferase expressing Ba/F3 murine hematopoietic progenitor cells; the other entry of the earlier key: ETV6 (P41212, Transcription factor ETV6)
The experiment in a line: Inhibition of proliferation of Ba/F3 cells expressing Tel-TrkB (BaF3/Tel-TrkB). It is filed as cell-based. As to conditions: Ba/F3 Tel-TrkB cells; read-out: Ba/F3 Tel-TrkB IC 50. The method, boiled down:
as §1

In a further assay the target is T3, Tel-TrkC (Homo sapiens, UniProt Q16288).
T3 construct: The cells also express luciferase as the viability read-out; it is not fused to the kinase; P41212 (Transcription factor ETV6)
The experiment in a line: Inhibition of proliferation of Ba/F3 cells expressing Tel-TrkC (BaF3/Tel-TrkC). It is filed as cell-based. The settings on record: read-out: Ba/F3 Tel-TrkC IC 50. The protocol:
Test compounds were dissolved in DMSO (10 mM) and transferred into 1.4 mL flat bottom or V-shaped Matrix tubes carrying a unique 2D matrix chip by individual compound hubs. The numbers of these chips were distinctively linked to the individual compound identification numbers. The stock solutions were stored at −20° C. if not used immediately. For the test procedure the vials were defrosted and identified by a scanner whereby a working sheet is generated that guides the subsequent working steps.
Compound dilutions were made in 384 well plates. This format enabled the assay of maximally 28 individual test compounds at 12 concentrations (single points) including 2 reference compounds. The dilution protocol included the production of pre-dilution plates, master plates and assay plates: • Compound plates: 30 μL of individual compound (10 mM) DMSO solution including standard compound were transferred into columns 1 and 13 of a 384 well plate. 20 μL of DMSO were added to the rest of the wells and the compounds were serially diluted (1:3) by transferring 10 μL from a well in column 1 or 13 to the next well in column 2 or 14 respectively and successively with the help of a Minitrack robot. • Assay plates: Identical assay plates were then prepared by adding […] each of compound dilutions of the compound plates into 384-well “assay plates”. In the following the compounds were mixed with 50 μL of assays components (cells or enzyme) and tested for their inhibitory activity.
Compounds of Formula (I) were tested for their antiproliferative effect on Ba/F3 cells expressing either Tel-TrkA, Tel-TrkB or Tel-TrkC and an additional panel of 34 selected diverse kinases activated by fusion to the dimerizing partners Bcr or Tel (Abl, A1K, BMX, EphA3, EphB2, FGFR2, FGFR3, FGFR4, FGR, FLT1, FLT3, FLT4, FMS, IGF1R, InsR, JAK1, JAK2, JAK3, KDR, Kit, Lck, Lyn, MER, MET, PDGFRb, RET, RON, Ros-1, Src, Aurora, TIE2, TYK2, Tie1, ZAP70). The antiproliferative effect of these compounds on the different cell lines and on the non transformed cells were tested at 12 different concentrations of 3-fold serially diluted compounds in 384 well plates as described above (in media lacking IL3). The IC50 values of the compounds the different cell lines were determined from dose response curves.
The cell line used is the luciferase expressing Ba/F3 murine hematopoietic progenitor cell line transformed with human Tel-TrkA, Tel-TrkB or Tel-TrkC cDNAs (Ba/F3 EN A/B/C). These cells maintained in RPMI/10% fetal bovine serum (RPMI/FCS) supplemented with penicillin 50 mg/mL, streptomycin 50 mg/mL and L-glutamine […]. Untransformed Ba/F3 cells were similarly maintained with the addition 5 ng/ml of murine recombinant IL3. 50 μl of a Ba/F3 or Ba/F3 EN A/B/C cell suspension were plated in Greiner 384 well microplates (white)) at a density of 2000 cells per well. 50 nl of serially diluted test compound (10-0.0001 mM in DMSO solution) is added to each well. The cells were incubated for 48 hours at 37° C., 5% CO2. 25 μl of Bright Glo® (Promega) luciferase substrate is added to each well. The emited luminiscence is quantified using the ACQUEST™ luminescence system (Molecular Devices). IC50 values were calculated by linear regression analysis of the percentage inhibition of each compound at 12 concentrations.

Assay [1] deals with T4, full length rTrkA and mNGF (Rattus norvegicus, UniProt P35739).
T4 construct: co-expressing full length rTrkA and mNGF; expressed in transfected cells; host or cells: Ba/F3 cells
The experiment in a line: Inhibition of proliferation of Ba/F3 cells co-expressing full length rTrkA and mNGF (BaF3/TrkA-NFG). It is filed as cell-based. As to conditions: BaF3 TRKA-NGF cells, CTG readout.

The next assay concerns parental BaF3 cells. The experiment in a line: Proliferation of parental (untransformed) Ba/F3 cells maintained with IL3. The class given is cell-based, murine. The settings on record: Mus musculus, BaF3, parental Ba/F3 cells; read-out: Ba/F3 IC 50. Summed up:
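Untransformed murine Ba/F3 cells kept in RPMI/10% FCS with 5 ng/ml murine IL3, plated at 2000 cells/well and exposed to 12 concentrations of compound for 48 h at 37 °C. Viability read by Bright-Glo luciferase luminescence; IC50 from linear regression of % inhibition.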

Another assay has as its system KM12 luc. The experiment in a line: KM12 luc cell proliferation assay (Table 8). As to conditions: KM12 luc cells; read-out: KM12 luc IC 50. The class given is cell-based.

This is an account of results in patent US8507488B2, “Fused nitrogen containing heterocycles and compositions thereof as kinase inhibitors” (IRM LLC, priority 2008, dated 2013).

T1 sequence (P04629 510-796 limits assumed): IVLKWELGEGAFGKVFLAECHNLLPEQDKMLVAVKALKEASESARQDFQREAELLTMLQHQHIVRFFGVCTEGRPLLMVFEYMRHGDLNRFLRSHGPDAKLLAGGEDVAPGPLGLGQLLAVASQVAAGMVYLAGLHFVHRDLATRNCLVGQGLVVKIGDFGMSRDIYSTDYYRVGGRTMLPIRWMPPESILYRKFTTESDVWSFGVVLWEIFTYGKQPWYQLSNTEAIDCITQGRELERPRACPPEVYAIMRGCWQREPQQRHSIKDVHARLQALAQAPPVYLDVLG
T4 sequence (P35739 33-799): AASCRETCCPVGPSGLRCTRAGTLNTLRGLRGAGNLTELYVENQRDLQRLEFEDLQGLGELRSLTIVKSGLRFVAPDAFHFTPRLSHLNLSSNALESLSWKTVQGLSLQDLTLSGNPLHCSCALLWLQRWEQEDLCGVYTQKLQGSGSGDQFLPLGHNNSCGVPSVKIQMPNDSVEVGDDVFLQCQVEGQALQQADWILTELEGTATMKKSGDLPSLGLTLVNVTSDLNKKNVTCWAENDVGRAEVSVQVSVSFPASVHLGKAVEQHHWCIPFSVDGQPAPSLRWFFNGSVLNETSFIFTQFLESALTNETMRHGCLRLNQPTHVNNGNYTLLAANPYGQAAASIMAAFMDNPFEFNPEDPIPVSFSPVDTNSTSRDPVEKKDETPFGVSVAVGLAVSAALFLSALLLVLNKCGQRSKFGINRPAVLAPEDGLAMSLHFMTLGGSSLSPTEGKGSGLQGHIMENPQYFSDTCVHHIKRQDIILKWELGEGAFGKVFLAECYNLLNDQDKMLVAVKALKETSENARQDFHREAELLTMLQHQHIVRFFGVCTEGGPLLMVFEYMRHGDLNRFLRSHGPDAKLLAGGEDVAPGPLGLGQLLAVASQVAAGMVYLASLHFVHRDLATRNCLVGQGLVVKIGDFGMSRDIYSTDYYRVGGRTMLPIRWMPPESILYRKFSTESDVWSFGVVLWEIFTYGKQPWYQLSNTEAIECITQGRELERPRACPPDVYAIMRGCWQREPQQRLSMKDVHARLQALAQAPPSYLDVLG
T4 sequence (P01139 122-241 partner): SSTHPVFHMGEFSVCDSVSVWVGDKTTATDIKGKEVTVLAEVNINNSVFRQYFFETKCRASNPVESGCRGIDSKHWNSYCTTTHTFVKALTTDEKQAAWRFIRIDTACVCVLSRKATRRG
T3 sequence (Q16288 whole entry, the tested form may be a part): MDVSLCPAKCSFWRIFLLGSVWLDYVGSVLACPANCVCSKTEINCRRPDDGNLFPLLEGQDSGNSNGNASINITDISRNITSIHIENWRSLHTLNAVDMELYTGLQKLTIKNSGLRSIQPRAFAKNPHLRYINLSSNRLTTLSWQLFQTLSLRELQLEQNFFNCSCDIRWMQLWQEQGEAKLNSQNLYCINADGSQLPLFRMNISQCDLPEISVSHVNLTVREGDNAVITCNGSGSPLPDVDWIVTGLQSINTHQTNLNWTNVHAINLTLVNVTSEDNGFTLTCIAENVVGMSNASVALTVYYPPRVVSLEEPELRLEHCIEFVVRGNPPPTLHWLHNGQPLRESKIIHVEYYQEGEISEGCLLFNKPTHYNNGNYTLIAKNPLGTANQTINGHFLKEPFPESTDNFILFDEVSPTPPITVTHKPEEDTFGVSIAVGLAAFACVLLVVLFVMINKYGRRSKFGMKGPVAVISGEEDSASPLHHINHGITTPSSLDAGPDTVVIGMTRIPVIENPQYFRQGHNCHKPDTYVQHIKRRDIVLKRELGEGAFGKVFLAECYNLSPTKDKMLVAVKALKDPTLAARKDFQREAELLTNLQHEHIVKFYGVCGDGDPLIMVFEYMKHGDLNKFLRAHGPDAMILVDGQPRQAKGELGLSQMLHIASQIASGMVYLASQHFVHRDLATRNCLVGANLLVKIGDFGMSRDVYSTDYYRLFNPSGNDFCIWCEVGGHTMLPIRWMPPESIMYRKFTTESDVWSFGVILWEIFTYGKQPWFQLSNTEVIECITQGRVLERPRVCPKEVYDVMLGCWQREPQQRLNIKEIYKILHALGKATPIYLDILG
T2 sequence (Q16620 538-822 limits assumed): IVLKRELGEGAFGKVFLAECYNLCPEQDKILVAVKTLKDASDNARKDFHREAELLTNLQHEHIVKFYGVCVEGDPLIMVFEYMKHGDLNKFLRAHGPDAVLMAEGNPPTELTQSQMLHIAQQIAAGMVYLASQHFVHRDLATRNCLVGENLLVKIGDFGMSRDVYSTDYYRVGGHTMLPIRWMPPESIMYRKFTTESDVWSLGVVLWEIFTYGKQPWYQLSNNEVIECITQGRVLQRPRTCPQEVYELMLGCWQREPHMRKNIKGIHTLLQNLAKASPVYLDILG

Take `CN(C)c1ccc(-c2cnc3ccc(N4CCCC4c4cc(F)ccc4F)nn23)cc1C#N` (stereo not drawn) [Table 5-Compound 4]: the IC50 is 166 nM on Tel-TrkA; 60 nM on Tel-TrkB; 32 nM on Tel-TrkC; 5360 nM in the assay with parental BaF3 cells; 89 nM in the assay on KM12 luc. The “BaF3 TRKA-NGF CTG IC 50” value in assay [1] stood at 203 nM.
As for `Fc1cccc(C2CCCN2c2ccc3ncc(-c4cncc(-n5ccnc5)n4)n3n2)c1` (stereo not drawn) [Table 3-Compound 11], the IC50 at Tel-TrkA is 87 nM; at Tel-TrkB, 56 nM; on Tel-TrkC, 17 nM; in the assay with parental BaF3 cells it was over 10000 nM; in the assay on KM12 luc, 36 nM. In addition, the “BaF3 TRKA-NGF CTG IC 50” value in assay [1] stood at 74 nM.
Regarding `N#Cc1cc(-c2cnc3ccc(N4CCCC4c4cc(F)ccc4F)nn23)ccc1F` (stereo not drawn) [Table 5-Compound 1], the IC50 stood at 51 nM on Tel-TrkA; 38 nM at Tel-TrkB; 21 nM on Tel-TrkC; 7660 nM in the assay on parental BaF3 cells; 9.2 nM in the assay with KM12 luc. Further, the “BaF3 TRKA-NGF CTG IC 50” value in assay [1] worked out at 43 nM.
With `N#Cc1cc(-c2cnc3ccc(N4CCCC4c4cc(F)ccc4F)nn23)ccc1N1CCOCC1` (stereo not drawn) [Table 5-Compound 2], the IC50 at Tel-TrkA turned out to be 26 nM; on Tel-TrkB, 15 nM; on Tel-TrkC, 8.4 nM; in the assay on parental BaF3 cells it was 6170 nM; in the assay on KM12 luc, 29 nM. Moreover, in assay [1], the “BaF3 TRKA-NGF CTG IC 50” value was found to be 49 nM.
Consider `Fc1cccc(C2CCCCN2c2ccc3ncc(-c4ccc(N5CCOCC5)nc4)n3n2)c1` (stereo not drawn) [Table 3-Compound 58], for which the IC50 at Tel-TrkA turned out to be 44 nM; at Tel-TrkB, 49 nM; at Tel-TrkC, 14 nM; with parental BaF3 cells it was 7650 nM; with KM12 luc, 34 nM. In addition, in assay [1], the “BaF3 TRKA-NGF CTG IC 50” value was 108 nM.
`Fc1cccc(C2CCCN2c2ccc3ncc(-c4cncc(Cl)n4)n3n2)c1` (stereo not drawn) [Table 3-Compound 10]: the IC50 on Tel-TrkA is 200 nM; on Tel-TrkB, 100 nM; on Tel-TrkC, 40 nM; in the assay on parental BaF3 cells, over 10000 nM; in the assay on KM12 luc it was 94 nM. In addition, the “BaF3 TRKA-NGF CTG IC 50” value in assay [1] stood at 180 nM.
Turning to `O=C(c1cccc(-c2cnc3ccc(N4CCCC4c4cccc(F)c4)nn23)n1)N1CCC(O)CC1` (stereo not drawn) [Table 7-Compound 158], the IC50 on Tel-TrkA was 65 nM; on Tel-TrkB, 52 nM; in the assay on parental BaF3 cells, over 11000 nM; in the assay on KM12 luc it was 19 nM. The “BaF3 TRKA-NGF CTG IC 50” value in assay [1] was found to be 87 nM.
With `CCN(CC)CCNc1cccc(-c2cnc3ccc(N4CCCC4c4cccc(F)c4)nn23)n1` (stereo not drawn) [Table 4-Compound 14], the IC50 is 21 nM at Tel-TrkA, 14.9 nM at Tel-TrkB, 5720 nM with parental BaF3 cells and 30.8 nM in the assay with KM12 luc. In assay [1], the “BaF3 TRKA-NGF CTG IC 50” value amounted to 45.2 nM.
Regarding `OCc1cccc(-c2cnc3ccc(N4CCCC4c4cccc(F)c4)nn23)n1` (stereo not drawn) [Table 7-Compound 2], the IC50 at Tel-TrkA is 18 nM; at Tel-TrkB, 13 nM; with parental BaF3 cells it was over 10000 nM; with KM12 luc, 26 nM. In addition, in assay [1], the “BaF3 TRKA-NGF CTG IC 50” value is 31 nM.
